# Measurements taken from a melting point compilation (Tetko et al.; mined from patent text by program, amines drawn as free bases though some values may be those of a salt).
row,SMILES,melting point [°C]
1,COc1cc(C=Cc2nc3c([nH]2)c(=O)n(C)c(=O)n3C)cc(OC)c1,> 320
2,CN(CCO)C(=O)c1c(-c2ccc(C(C)(C)C)cc2)n(C)n(-c2ccc(C#N)cc2)c1=O,210 to 213
3,CC(C)(C)CNc1cc(Cl)nc(N2CCCC2)n1,130 to 135
4,COc1ccccc1CN1CCC(=O)C(C(c2ccccc2)c2ccc(F)cc2)C1 (configuration not stated),115 to 116
5,O=c1[nH]c2cc([N+](=O)[O-])ccc2n(Cc2ccc(P(=O)(O)O)cc2)c1=O,253 to 265
6,COC(=O)c1ncncc1OC,75
7,NC1CCc2cc3c(cc2C1)OCC3 (configuration not stated),60
8,CCC(COc1cccc(COc2cccc3cccnc23)c1)OC(C)=O (configuration not stated),77 to 79
9,COc1cc(N2CCC(=O)CC2)ncn1,111 to 114
10,CCCCCCCCCCCCCCCCCCc1ccc(S(=O)(=O)Cl)cc1,43 to 44
11,CN1C(=O)C2(COc3cc4c(cc32)OCCO4)c2c(NC(=O)NC3CCCCC3)cccc21 (configuration not stated),175 to 177
12,C=CCOc1ccc(-c2cc3ccccc3[nH]2)cc1,214
13,Cc1cc(C)c2c(c1Br)CC=C2,34
14,O=[N+]([O-])c1ccc(C2CCOCC2)cc1,124
15,COC(=O)CCc1ccccc1CC1C2CCC(O2)C1c1nc(C(=O)CCCCCC2CCCCC2)co1 (configuration not stated),170 to 171
16,Cc1cccc(CNc2ncnc3nc[nH]c23)c1O,276 to 277
17,O=C1c2c(-c3ccccc3)cc(CO)nc2OCCN1Cc1cc(C(F)(F)F)cc(C(F)(F)F)c1,199 to 201
18,Cc1cccc2c1C1(CCC(=O)NC1=O)CCC2=O (configuration not stated),285 to 287
19,Fc1ccc(-c2nn3c(c2-c2ccncc2)NCC3)cc1,213 to 214
20,CCOC(=O)Cn1c2cccccc-2c(C(C)=O)c1=O,162 to 165
21,Nc1ccc2c3c(cccc13)C(=O)N([C@@H]1CN3CCC1CC3)C2=O,305 to 308
22,Cc1c(C)c2c(c(C)c1N)CC(C)(CN1CCN(CCc3ccccc3)CC1)O2 (configuration not stated),99 to 100
23,O=P(c1ccccc1)(c1ccccc1)c1ccc(P(=O)(c2ccccc2)c2ccccc2)nn1,248 to 252
24,COC1OCC[C@@H]1NC(=O)[C@H](Cc1ccccc1)NC(=O)CNC(=O)COc1ccc2c(c1)Nc1ccccc1S2 (some centres not stated),203 to 204

row,SMILES,melting point [°C]
1,COc1cc(N)c(Cl)cc1C(=O)NCC1CCN(CCCCCCNC(=O)c2ccccc2)CC1,159 to 162
2,CN1CCc2sc(C=C3C(=O)N4C(C(=O)O)=CSC34)cc2C1 (configuration not stated),> 25
3,O=C1[C@H]2CCC[C@H]2N(C(=O)CCn2ccnc2)c2ccccc2N1Cc1ccccc1 (relative stereo),150 to 152
4,O=C(NCCOc1cccnn1)C1Cc2ccccc2N1S(=O)(=O)c1ccc(-c2cccc(C(F)(F)F)c2)cc1 (configuration not stated),65 to 71
5,CCCCOc1c(-c2cc(C=CC(=O)O)ccc2OC)cc(C(C)(C)C)cc1C(C)(C)C,204 to 206
6,COc1cc(N)ccc1OCCCN1CCN(c2ccccc2)CC1,112 to 113
7,CC(Oc1ccc(Cl)cc1Cl)c1nnc(N)s1 (configuration not stated),119 to 123
8,O=C(CC1(Sc2ccc(Oc3ccc(Cl)cc3)cc2)CCOCC1)NO,50 to 55
9,CC(=O)N1CC(=O)NC(=O)N1c1cc(Cl)c(Oc2ccc(S(C)(=O)=O)cc2)c(Cl)c1,267
10,CC(=O)c1ccc(F)c(N(C)C(C)=O)c1,75.5 to 76.5
11,Cc1cn(C2OC(COC(=O)c3ccccc3)C(OC(=O)c3ccccc3)C2F)c(=O)[nH]c1=O (configuration not stated),120 to 122
12,CN(C)S(=O)(=O)c1cc([N+](=O)[O-])ccc1Cl,138 to 140
13,CN(CCNc1ccc2nc(NC(=O)c3ccc(C(C)(C)C)cc3)cn2n1)C(=O)OC(C)(C)C,200 to 201
14,N#Cc1c(I)c(C(=O)NCCO)c(I)c(C(=O)NCCO)c1I,300
15,Nc1ccc(/C=C/c2ccccc2)cc1,151
16,CN1C(=O)N(c2cc(Cl)nc(Cl)c2)C(=O)/C1=C\c1ccc(C#N)cc1,230
17,O=c1[nH]c2ccccc2n1CCCN1CC=C(n2c(=O)[nH]c3ccccc32)CC1,207
18,Cc1sc(-c2ccccc2)nc1COc1ccc(CCCC(O)C#N)cc1 (configuration not stated),101 to 102
19,C=CCSC1(C(F)(F)F)CN(CC)C(=O)Nc2ccc(Cl)cc21 (configuration not stated),138 to 142
20,CCc1cccc(-n2cnc(-c3cnc4[nH]cc(C(=O)N[C@@H](C)C(C)(C)C)c4n3)c2)c1,284 to 287
21,CCCCc1ccc(-c2ccccc2)c(C(=O)O)c1,74 to 76
22,Cc1ccc(-c2[nH]c3ccccc3c(=O)c2Cc2ccncc2)cc1,264 to 266
23,CCOC(=O)C=Cc1ccc(O)c(Br)c1,112 to 113
24,CC(C)(C)OC(=O)N1CCC2(CC1)CC(=O)N(OCC#N)C2=O,138 to 139

row,SMILES,melting point [°C]
1,O=C1NC(C(=O)N2CCN3C(=O)OC(c4ccccc4)(c4ccccc4)C3C2)c2ccccc21 (configuration not stated),227 to 228
2,CCCCCCCCOc1ccc(-c2ccc(C3CCC(CCC)C3)cc2)cc1 (configuration not stated),84
3,COc1ccc(/C=C/c2ccncn2)cc1OC1CCCC1,83 to 84.5
4,COc1cc(N2CCC(N3CCN(C)CC3)CC2)ccc1-c1nc2c(N[C@H]3[C@@H](C(N)=O)[C@@H]4C=C[C@H]3C4)ccnc2[nH]1,185 to 195
5,CCOc1cc(N)c([N+](=O)[O-])cc1C(=O)O,230
6,COCCOc1ccc(/C=C/C(=O)O)c(Oc2ncc(Cl)cc2Cl)c1,182 to 184
7,N#Cc1ccc(C(=O)N2CCN(C(=O)C3CCN(c4ccncn4)CC3)CC2)cc1,192 to 193
8,Cc1ccc(C(=O)c2[nH]c3cc(Cl)ccc3c2CC(=O)O)cc1,182 to 184
9,O=C(Nc1nc2ccccc2[nH]1)c1ccc(Cl)c(Cl)c1,251 to 252
10,CSc1cc(C)nc(SC)c1NC(=O)CCCCCCCCSc1nc2ccccc2o1,123 to 124
11,C=CCOc1ccc2c(c1CC=C)NC(=O)CC2,119 to 121
12,CC(C)(OCc1nn(Cc2ccccc2)c2ccccc12)C(=O)Nc1ccccn1,121 to 122
13,CSc1ccc(C(=O)c2ccc(F)cc2)[nH]1,112 to 113
14,NC(=O)C(OC(=O)Nc1cccc(Cl)c1)(C(N)=O)c1ccccc1,196 to 198
15,CCCc1cc(C(=O)CCCC(=O)O)ccc1OC,105 to 106
16,CCOC(=O)C(Cc1ccc(F)cc1)C(=O)c1ccc(C(F)(F)F)cc1 (configuration not stated),52 to 53
17,CC=CCSc1cc(C(=O)O)cc([N+](=O)[O-])c1-c1ccccc1,138 to 140
18,CCc1ccc2c(c1)C=Cc1cc(C)ccc1C2c1cn(-c2ccnc(N(C)CC(=O)O)n2)c(=O)[nH]c1=S (configuration not stated),187
19,O=c1[nH]c(=O)n(C2CC(OCc3ccc(F)cc3)C(CO)O2)cc1F (configuration not stated),130 to 131
20,COc1sc(S(=O)(=O)C[N+](=O)[O-])cc1Br,120 to 121
21,Cc1cc(-c2coc3ccc(-c4nnc(C)o4)cc23)ccn1,151 to 152
22,Nc1c(Cl)cc(C(O)CNCCCCCOCCc2ccc(F)cc2)cc1Cl (configuration not stated),75 to 76
23,CC(=O)c1ccc(O)c(CS(C)(=O)=O)c1,206 to 208
24,N#Cc1c(F)c(F)c(O)c(F)c1F,128 to 129
